Source: patent US8129532B2, “Amino(oligo)thiophene dyes, preparation thereof, and optical methods of use” (The University of Connecticut, priority 2007, dated 2012)

Assays:
[1] = test system: layer V pyramidal neurons; experiment: Voltage-sensitive dye imaging of action potentials in intracellularly stained pyramidal neurons in brain slices; assay type: cell-based, Sprague Dawley rats
Excerpt: Sprague Dawley rats (P21-42) were anesthetized with isoflurane, decapitated, and the brains were removed with the head immersed in ice-cold, artificial cerebrospinal fluid (ACSF), according to an animal protocol approved by the Center for Laboratory Animal Care, University of Connecticut. Brain slices (300 μm) were cut from frontal lobes in the coronal plane. ACSF contained (in mM) 125 NaCl, 26 NaHCO3, 10 glucose, 2.3 KCl, 1.26 KH2PO4, 2 CaCl2 and 1 MgSO4, pH 7.4. Whole-cell recordings were made from visually identified layer V pyramidal neurons on the medial part of the slice. Intracellular solution contained (in mM) 135 K-gluconate, 2 MgCl2, 3 Na2-ATP, 10 Na2-phosphocreatine, 0.3 Na2-GTP and 10 Hepes (pH 7.3, adjusted with KOH). Electrical signals were amplified with Multiclamp 700A and digitized with two input boards: (1) Digidata Series 1322A (Axon Instruments) at 5 kHz, and (2) Neuroplex (RedShirtImaging) at 2.7 kHz sampling rate. Only cells with a membrane potential more hyperpolarized than −50 mV, and action potential amplitudes exceeding 80 mV (measured from the base line) were included in this study. All experiments were performed on layer 5 cortical pyramidal cells at 34° C.
Blue dyes were stored in ethanol stock solution at −20° C. On the day of the recording blue dyes were dissolved in standard K-gluconate based intracellular solution. A loading pipette was filled with two varieties of the same intracellular solution; one with and one without dye. Dye-free solution was occupying the very tip of the pipette, while the back of the pipette lumen was microloaded with dye-rich solution. The purpose of dye-free solution in the tip of the patch pipette was to prevent dye-leak during the maneuver through brain slice tissue. VSD styryl dyes are lipophilic and bind indiscriminately and irreversibly to all membranes around the neuron of interest. Even a small amount of dye that leaks out of the pipette during the formation of the gigaohm seal, can generate strong fluorescent background. Fluorescent light emanating from surrounding tissue has a devastating effect on dendritic optical signals. Elimination of the background fluorescence is critical for dendritic voltage imaging. How much dye-free solution one should put in the tip depends on time period between the submersion of the patch pipette into the recording chamber and formation of the gigaohm seal. The faster one can perform this maneuver the less dye-free solution she needs to achieve optimal staining.
Blue VSD were injected at room temperature for 25-60 minutes. The filling pipette was carefully pulled out (outside-out patch) and brain slices were left to incubate for 20-120 minutes at room temperature. Just before optical recordings the cells were re-patched with dye-free pipette at the physiological temperature (34° C.).
Voltage-sensitive dye imaging was performed on a Zeiss Axioskope 2FS microscope equipped with NeuroCCD camera (RedShirtImaging). We used Zeiss 40× objective IR-Achroplan 0.80 W. The size of the square visual field captured by NeuroCCD camera was 384×384 um. In the place of the arc lamp (normally used for epi-illumination), we inserted a 200 μm fiber optic guide with a collimator. Laser beam was focused on the other side of the fiber optic guide using a microscope objective-like lens. This arrangement produced a motionless spot of laser light (˜25 μm in diameter) at the object plane. An illuminated section of the brain slice, projected onto the NeuroCCD camera, covered approximately 25 pixels when used with 40× objective lens. At this magnification, one pixel sampled a 4.8×4.8 square in the object plane. A region of interest (ROI) was brought into the laser spot using X-Y microscope platform. The laser beam was interrupted by an electro-programmable shutter (Uniblitz®). Attention was made to limit the exposure time during the recording and positioning of the neuron.

[2] = One-photon absorption and emission spectra in multilamellar lipid vesicles, water and ethanol; assay type: physicochemical
Excerpt: […] The column indicating relative signal change for one-photon fluorescence also lists the excitation light source used and the lower bounds of the long-pass emission detected.
Absorption and emission spectra were obtained for a series of dyes with different acceptors: pyridinium (PY-1261), quinolinium (PY-212), and acridinium (PY-2240).

[3] = One-photon fluorescence relative signal change per 100 mV; conditions: excitation / long-pass emission (nm) given
Excerpt: The left-most data columns of Table 1 are the absorption and emission maxima for one photon fluorescence in soybean multi-lamellar lipid vesicles used to mimic the membrane environment. The column indicating relative signal change for one-photon fluorescence also lists the excitation light source used and the lower bounds of the long-pass emission detected.

[4] = one photon, soybean multi-lamellar lipid vesicles

SMILES	polarity of optical signal at 532 nm excitation [1]	polarity of optical signal at 658 nm excitation [1]	dF/F at 658 nm ([1]; backpropagating AP, basal dendrites 80-150 μm from soma, laser spot 658 nm, %) [%]	S/N ratio at 658 nm ([1]; laser spot 658 nm)	average amplitude of AP-associated optical signal, 658 nm excitation ([1]; n=4 cells, N=24 measurements) [% ΔF/F]	average size of AP-associated optical signal, 532 nm excitation ([1]; same 4 cells) [% ΔF/F]	average amplitude ratio of AP-associated signal at two wavelengths (658/532 nm) ([1]; same cell and region of interest)	Absorbance ethanol ([2]; ethanol) [nm]	Emission ethanol ([2]; ethanol) [nm]	Absorbance MLV ([2]; multilamellar lipid vesicles) [nm]	Emission MLV ([2]; multilamellar lipid vesicles) [nm]	Absorbance water ([2]; water) [nm]	1PF Change (ΔF/F-100 mv) [3]	1PF Abs. Max [2, 4] [nm]	1PF Em. Max [2, 4] [nm]
CN(C)c1ccc(/C=C/c2ccc(/C=C/c3cc[n+](CCC[N+](C)(C)C)c4ccccc34)o2)cc1 [JPW-3080]	negative optical signals	positive	5.13 ± 1.20	6.20 ± 2.29	4.13±0.96	0.97±0.26	4.39±1.07	630	896	569	730	554			
CC[N+](CC)(CC)CCC[n+]1ccc(/C=C/c2ccc(-c3ccc(N4CCCC4)s3)s2)cc1 [PY-1274]													5.0E−002; 620/>715 ΔF/F-100 mv	551	691
